Laboratory results published in patent publication US20230348369A1 (Cytokinetics, Inc., priority 2020, published 2023).
Where two headings read alike, the source gives them in different places.

Target: human NAMPT (Homo sapiens, UniProt P43490)
Test: Human recombinant enzyme assay (NMN fluorescence biochemical assay, activation of NAMPT)
Method in brief: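 NMN production is detected fluorometrically (Ex 355/Em 460 nm) 40 min after acetophenone, KOH and formic acid derivatization. Reactions ran 60 min at ambient temperature: 6 nM human NAMPT, nicotinamide 150 μM, PRPP 20 μM, ATP 2.5 mM, buffered at pH 7.2 with 50 mM HEPES plus DTT, CHAPS, NaCl and 100 mM MgCl2.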

[1] = Table A, human recombinant NAMPT, NMN formation, 60 min
[2] = Table A, human recombinant NAMPT, NMN formation, 60 min, read-out: EC50 Human

Sequence of human NAMPT (P43490 whole entry): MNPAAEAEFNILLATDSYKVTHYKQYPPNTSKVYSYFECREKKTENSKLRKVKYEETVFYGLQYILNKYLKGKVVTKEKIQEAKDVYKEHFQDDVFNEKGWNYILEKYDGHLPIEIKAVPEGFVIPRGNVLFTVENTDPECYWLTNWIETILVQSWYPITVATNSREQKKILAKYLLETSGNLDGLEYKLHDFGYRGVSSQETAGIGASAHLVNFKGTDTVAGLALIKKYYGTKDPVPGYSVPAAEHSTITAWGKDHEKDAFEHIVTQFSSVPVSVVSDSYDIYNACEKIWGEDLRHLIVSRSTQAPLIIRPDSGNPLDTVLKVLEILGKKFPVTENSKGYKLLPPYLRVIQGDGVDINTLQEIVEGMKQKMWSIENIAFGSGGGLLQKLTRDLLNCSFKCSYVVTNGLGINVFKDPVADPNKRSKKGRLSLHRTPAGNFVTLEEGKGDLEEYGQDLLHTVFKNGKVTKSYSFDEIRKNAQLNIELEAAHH

| SMILES | AC1.4 Human [1] [µM] | EC50 [2] [µM] | EC50 [µM] | EC50 (read-out: EC50 Human, Table A, human recombinant NAMPT, NMN formation, 60 min) [µM] |
| --- | --- | --- | --- | --- |
| COc1ccc(CNC(=O)NC2CC3(C2)CN(C(=O)CCc2ccccc2Cl)C3)cc1 [Compound 135, 1-(2-(3-(2-chlorophenyl)propanoyl)-2-azaspiro[3.3]heptan-6-yl)-3-(4-methoxybenzyl) urea] | 3.7 | – | 38.5 | – |
| COc1ccc(CNC(=O)NC2CC3(C2)CN(C(=O)C2CCCN(C(=O)OC(C)(C)C)C2)C3)cc1 (centres unmarked) [Compound 136, tert-butyl 3-(6-(3-(4-methoxybenzyl)ureido)-2-azaspiro[3.3]heptane-2-carbonyl)piperidine-1-carboxylate] | 9.8 | 57.7 | – | – |
| COc1ccc(CNC(=O)NC2CC3(C2)CN(C(=O)C2CCCc4ccccc42)C3)cc1 (centres unmarked) [Compound 137, 1-(4-methoxybenzyl)-3-(2-(1,2,3,4-tetrahydronaphthalene-1-carbonyl)-2-azaspiro[3.3]heptan-6-yl)urea] | 13.8 | 53.3 | – | – |
| COc1ccc(CNC(=O)NC2CC3(C2)CN(C(=O)c2ccccc2)C3)cc1 [Compound 141, 1-(2-benzoyl-2-azaspiro[3.3]heptan-6-yl)-3-(4-methoxybenzyl)urea] | 4.7 | 49.4 | – | – |
| COc1ccc(CNC(=O)NC2CC3(C2)CN(C(=O)C2(c4ccccc4)CC2)C3)cc1 [Compound 143, 1-(4-methoxybenzyl)-3-(2-(1-phenylcyclopropane-1-carbonyl)-2-azaspiro[3.3]heptan-6-yl)urea] | 8.0 | 45.6 | – | – |
| COc1ccc(CNC(=O)NC2CC3(C2)CN(C(=O)c2ccc(=O)n(C)c2)C3)cc1 [Compound 144, 1-(4-methoxybenzyl)-3-(2-(1-methyl-6-oxo-1,6-dihydropyridine-3-carbonyl)-2-azaspiro[3.3]heptan-6-yl)urea] | 16.0 | 54 | – | – |
| COc1ccc(CNC(=O)NC2CC3(C2)CN(C(=O)c2ccc(C(F)(F)F)cc2)C3)cc1 [Compound 147, 1-(4-methoxybenzyl)-3-(2-(4-(trifluoromethyl)benzoyl)-2-azaspiro[3.3]heptan-6-yl)urea] | 5.8 | 58.2 | – | – |
| COc1ccc(CNC(=O)NC2CC3(C2)CN(C(=O)c2ccccc2C)C3)cc1 [Compound 148, 1-(4-methoxybenzyl)-3-(2-(2-methylbenzoyl)-2-azaspiro[3.3]heptan-6-yl)urea] | 3.9 | 47.1 | – | – |
| COc1ccc(CNC(=O)NC2CC3(C2)CN(C(=O)c2ccc(OC)cc2)C3)cc1 [Compound 155, 1-(2-(4-methoxybenzoyl)-2-azaspiro[3.3]heptan-6-yl)-3-(4-methoxybenzyl)urea] | 2.7 | 52.1 | – | – |
| COc1ccc(CNC(=O)NC2CC3(C2)CN(C(=O)c2ccc(C#N)cc2)C3)cc1 [Compound 156, 1-(2-(4-cyanobenzoyl)-2-azaspiro[3.3]heptan-6-yl)-3-(4-methoxybenzyl)urea] | 11.0 | 45.8 | – | – |
| COc1ccc(CNC(=O)NC2CC3(C2)CN(C(=O)c2ccc(C(C)(C)O)cc2)C3)cc1 [Compound 157, 1-(2-(4-(2-hydroxypropan-2-yl)benzoyl)-2-azaspiro[3.3]heptan-6-yl)-3-(4-methoxybenzyl)urea] | 4.1 | 47.6 | – | – |
| COc1ccc(C(=O)N2CC[C@]3(C2)C[C@H](NC(=O)NCc2ccc(Cl)cc2)C3)cc1 [Compound 165, 1-(4-chlorobenzyl)-3-((2s,4r)-6-(4-methoxybenzoyl)-6-azaspiro[3.4]octan-2-yl)urea] | 15.9 | 49.4 | – | – |
| COC(=O)C1CC2(CC(NC(=O)NCc3ccc(Cl)cc3)C2)C1 (centres unmarked) [Compound 168, methyl 6-(3-(4-chlorobenzyl)ureido)spiro[3.3]heptane-2-carboxylate] | 9.5 | – | – | 39.3 |
| O=C(NCc1ccc(Cl)cc1)N[C@H]1C[C@]2(CCN(c3ncccn3)C2)C1 [Compound 170, 1-(4-chlorobenzyl)-3-((2s,4r)-6-(pyrimidin-2-yl)-6-azaspiro[3.4]octan-2-yl)urea] | 15.1 | 46.9 | – | – |
| CCc1cccc(C(=O)N2CC3(CC(NC(=O)NCc4ccc(OC)cc4)C3)C2)c1 [Compound 172, 1-(2-(3-ethylbenzoyl)-2-azaspiro[3.3]heptan-6-yl)-3-(4-methoxybenzyl)urea] | 1.9 | – | 22.9 | – |
| COc1ccc(CNC(=O)NC2CC3(C2)CN(C(=O)c2cccc(C(C)(C)O)c2)C3)cc1 [Compound 175, 1-(2-(3-(2-hydroxypropan-2-yl)benzoyl)-2-azaspiro[3.3]heptan-6-yl)-3-(4-methoxybenzyl)urea] | 5.5 | 55.1 | – | – |

The next lines start with results.

| AC1.4 Human [1] [µM] | EC50 [2] [µM] | SMILES | EC50 [µM] | EC50 (read-out: EC50 Human, Table A, human recombinant NAMPT, NMN formation, 60 min) [µM] |
| --- | --- | --- | --- | --- |
| 16.4 | 44.9 | COc1ccc(CNC(=O)NC2CC3(C2)CN(C(=O)c2ccncc2)C3)cc1 [Compound 139, 1-(2-isonicotinoyl-2-azaspiro[3.3]heptan-6-yl)-3-(4-methoxybenzyl)urea] | – | – |
| 1.8 | 33.3 | COc1ccc(CNC(=O)NC2CC3(C2)CN(C(=O)C(C)(C)c2ccccc2)C3)cc1 [Compound 142, 1-(4-methoxybenzyl)-3-(2-(2-methyl-2-phenylpropanoyl)-2-azaspiro[3.3]heptan-6-yl)urea] | – | – |
| 4.1 | 38.7 | COc1ccc(CNC(=O)NC2CC3(C2)CN(C(=O)c2cccc(C)c2)C3)cc1 [Compound 146, 1-(4-methoxybenzyl)-3-(2-(3-methylbenzoyl)-2-azaspiro[3.3]heptan-6-yl)urea] | – | – |
| 2.0 | 5.3 | COc1ccc(CNC(=O)NCCCCCCOc2ccccc2)cc1 [Compound 150, 1-(4-methoxybenzyl)-3-(6-phenoxyhexyl)urea] | – | – |
| 6.8 | 41.2 | CC(C)(C)OC(=O)N1CC[C@]2(C1)C[C@@H](NC(=O)NCc1ccc(Cl)cc1)C2 [Compound 151, tert-butyl (2r,4s)-2-(3-(4-chlorobenzyl)ureido)-6-azaspiro[3.4]octane-6-carboxylate] | – | – |
| 7.9 | 38.3 | CC(C)(C)OC(=O)N1CC[C@]2(C1)C[C@H](NC(=O)NCc1ccc(Cl)cc1)C2 [Compound 152, tert-butyl (2s,4r)-2-(3-(4-chlorobenzyl)ureido)-6-azaspiro[3.4]octane-6-carboxylate] | – | – |
| 2.3 | 26.3 | COc1ccc(CNC(=O)NC2CC3(C2)CN(C(=O)C(C)(C)c2ccc(C)cc2)C3)cc1 [Compound 153, 1-(4-methoxybenzyl)-3-(2-(2-methyl-2-(p-tolyl)propanoyl)-2-azaspiro[3.3]heptan-6-yl)urea] | – | – |
| 2.1 | 31 | COc1ccc(CNC(=O)NC2CC3(C2)CN(C(=O)C(C)(C)c2cccc(C)c2)C3)cc1 [Compound 154, 1-(4-methoxybenzyl)-3-(2-(2-methyl-2-(m-tolyl)propanoyl)-2-azaspiro[3.3]heptan-6-yl)urea] | – | – |
| 2.7 | 39.1 | COc1ccc(CNC(=O)NC2CC3(C2)CN(C(=O)c2ccc(Cl)cc2)C3)cc1 [Compound 158, 1-(2-(4-chlorobenzoyl)-2-azaspiro[3.3]heptan-6-yl)-3-(4-methoxybenzyl)urea] | – | – |
| 8.7 | 23.1 | Cc1ccc(C(=O)N2CC[C@]3(C2)C[C@@H](NC(=O)NCc2ccc(Cl)cc2)C3)cc1 [Compound 159, 1-(4-chlorobenzyl)-3-((2r,4s)-6-(4-methylbenzoyl)-6-azaspiro[3.4]octan-2-yl)urea] | – | – |
| 13.6 | 42.6 | Cc1cc(C(=O)N2CC[C@]3(C2)C[C@@H](NC(=O)NCc2ccc(Cl)cc2)C3)ccn1 [Compound 160, 1-(4-chlorobenzyl)-3-((2r,4s)-6-(2-methylisonicotinoyl)-6-azaspiro[3.4]octan-2-yl)urea] | – | – |
| 12.4 | 27.9 | COc1ccc(C(=O)N2CC[C@]3(C2)C[C@@H](NC(=O)NCc2ccc(Cl)cc2)C3)cc1 [Compound 163, 1-(4-chlorobenzyl)-3-((2r,4s)-6-(4-methoxybenzoyl)-6-azaspiro[3.4]octan-2-yl)urea] | – | – |
| 14.2 | 42.8 | Cc1cnccc1C(=O)N1CC[C@]2(C1)C[C@@H](NC(=O)NCc1ccc(Cl)cc1)C2 [Compound 166, 1-(4-chlorobenzyl)-3-((2r,4s)-6-(3-methylisonicotinoyl)-6-azaspiro[3.4]octan-2-yl)urea] | – | – |
| 11.8 | 27.5 | O=C(NCc1ccc(Cl)cc1)N[C@H]1C[C@]2(CCN(C(=O)c3ccc(F)cc3)C2)C1 [Compound 167, 1-(4-chlorobenzyl)-3-((2r,4s)-6-(4-fluorobenzoyl)-6-azaspiro[3.4]octan-2-yl)urea] | – | – |
| 7.1 | 9.3 | CC(C)c1cccc(C(=O)N2CC[C@]3(C2)C[C@@H](NC(=O)NCc2ccc(Cl)cc2)C3)c1 [Compound 169, 1-(4-chlorobenzyl)-3-((2r,4s)-6-(3-isopropylbenzoyl)-6-azaspiro[3.4]octan-2-yl)urea] | – | – |
| 17.3 | 24.9 | Cc1cc(N2CC[C@]3(C2)C[C@@H](NC(=O)NCc2ccc(Cl)cc2)C3)ccn1 [Compound 171, 1-(4-chlorobenzyl)-3-((2r,4s)-6-(2-methylpyridin-4-yl)-6-azaspiro[3.4]octan-2-yl)urea] | – | – |
| 1.7 | 20.2 | COc1ccc(CNC(=O)NC2CC3(C2)CN(C(=O)c2cccc(C(C)C)c2)C3)cc1 [Compound 173, 1-(2-(3-isopropylbenzoyl)-2-azaspiro[3.3]heptan-6-yl)-3-(4-methoxybenzyl)urea] | – | – |
| 2.0 | 29.5 | COc1ccc(CNC(=O)NC2CC3(C2)CN(C(=O)c2cccc(C(C)(C)C)c2)C3)cc1 [Compound 174, 1-(2-(3-(tert-butyl)benzoyl)-2-azaspiro[3.3]heptan-6-yl)-3-(4-methoxybenzyl)urea] | – | – |
